The test concerns the target T1, SAMHD1 (Homo sapiens, UniProt Q9Y3Z3).
T1 construct: recombinant SAMHD1 with N-terminal GST tag
Put plainly: TLC-based [γ-32P]-dTTP triphosphohydrolase kinetics; HPLC dGTP hydrolysis assay. The test is classed as biochemical.

T1 sequence (Q9Y3Z3 whole entry): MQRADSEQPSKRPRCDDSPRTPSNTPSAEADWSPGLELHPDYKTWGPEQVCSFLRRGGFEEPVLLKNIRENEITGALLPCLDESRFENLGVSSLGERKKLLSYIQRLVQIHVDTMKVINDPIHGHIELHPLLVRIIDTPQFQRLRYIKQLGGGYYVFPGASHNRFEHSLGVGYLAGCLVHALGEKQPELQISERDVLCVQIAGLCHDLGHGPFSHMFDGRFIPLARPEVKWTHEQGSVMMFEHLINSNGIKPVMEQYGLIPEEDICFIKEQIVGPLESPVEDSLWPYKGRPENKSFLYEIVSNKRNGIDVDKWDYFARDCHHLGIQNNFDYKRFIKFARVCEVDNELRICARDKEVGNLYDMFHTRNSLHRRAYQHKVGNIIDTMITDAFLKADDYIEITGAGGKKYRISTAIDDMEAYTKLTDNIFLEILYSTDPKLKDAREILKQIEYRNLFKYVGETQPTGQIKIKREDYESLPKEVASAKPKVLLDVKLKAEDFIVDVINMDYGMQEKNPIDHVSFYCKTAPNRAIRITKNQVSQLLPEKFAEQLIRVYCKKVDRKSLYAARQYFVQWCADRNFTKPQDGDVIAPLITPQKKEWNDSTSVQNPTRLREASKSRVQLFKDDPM

A word on the Ki: it is the equilibrium dissociation constant of an inhibitor or competing ligand from its target. In turn, `C[C@H]1[C@H](O)[C@@H](COP(=O)(O)OP(=O)(O)OP(=O)(O)O)O[C@H]1n1ccc(=O)[nH]c1=O` [SMDU-TP] registered an inhibition constant (Ki) of 256 ± 70 µM.
